From patent US20230095912A1, “Composition and Methods for Selective Degradation of Engineered Proteins” (Celgene Corporation, priority 2021, published 2023)

Legend:
ePL-tagged Aiolos = target: T1, ePL-tagged Aiolos (Homo sapiens, UniProt Q96SW2+Q9UKT9); experiment: ePL-tagged substrate degradation in DF15 multiple myeloma cells; format: cell-based
T1 construct: expressed in transfected cells
Method: (§1) DF15 multiple myeloma cells stably expressing ePL-tagged Aiolos, Ikaros, or GSPT1, and MDS-L cells stably expressing ePL-tagged CK1a were generated via lentiviral infection with pLOC-ePL-Aiolos (or Ikaros, GSPT1, or CK1a). […] Compounds were dispensed by an acoustic dispenser (ATS acoustic transfer system from EDC Biosystems) into a 384-well plate in a 10-point dose response curve using 3-fold dilutions starting at 10 μM and going down to […]. Then, 25 μL of media (RPMI-1640+10% heat inactivated FBS+25 mM Hepes+1 mM Na pyruvate+1× NEAA+1×Pen Strep Glutamine) containing 5000 of DF15 or MSD-L cells was dispensed per well. Assay plates were incubated at 37° C. with 5% CO2 for 4 hours except 20 hours for GSPT1. After incubation, 25 μL of the InCELL Hunter detection reagent working solution (DiscoverX, catalogue no. 96-0002, Fremont, Calif.) was added to each well and incubated at room temperature for 60 min protected from light. After 60 min, luminescence was read on an Envision or PHERAstar luminescence reader.
All substrate degradation curves were processed and evaluated using ActivityBase (IDBS), a data analysis software package. Ymin is minimum percent protein remaining.

[1] = system: H-1975 ROR1 expressing target cell line; experiment: Primary CAR T effector function (tumor killing, cytokine production) in co-culture; format: cell-based; settings: 1:4 effector:target, 24 hours, different concentrations
Method: (§2) The ability to use compounds to titrate primary CAR T effector function by degrading IKZF1 ZNF2_3 Q1F tagged anti-ROR1 CAR (FIG. 13A) was evaluated. The CAR included similar transmembrane, costimulatory, and signaling domains as the CD19 CAR, but with an anti-ROR1 scFv. A lentiviral vector encoding ZNF2_3 Q1F tagged or untagged anti-ROR1 CAR was transduced into activated primary T cells. Transduced cells were expanded for 10 days in media supplemented with IL2, IL7, and IL15, then frozen. Prior to the experiment, cells were thawed and allowed to rest in media with a dose titration of Compound C or without drug. […] To determine the impacts of CAR degradation on CAR T activity, cells were then co-cultured with a Nuclight red labeled H-1975 ROR1 expressing target cell line at a 1:4 effector:target cell ratio. Co-cultures were placed in the Incucyte for 24 hours to monitor tumor killing via Nuclight red signal (FIG. 14A), and supernatants were collected to measure proinflammatory cytokine production by MSD (FIG. 14B-14D; IL-2, TNFα, and IFNγ).

ePL-tagged GSPT1 = target: T2, ePL-tagged GSPT1 (Homo sapiens, UniProt P15170+Q96SW2); experiment: ePL-tagged substrate degradation in DF15 multiple myeloma cells; format: cell-based
T2 construct: expressed in transfected cells
Method: as §1
(§3) To determine the EC50 value of a compound for the degradation of a given substrate (concentration of compound that achieves half the maximum degradation observed), a four-parameter logistic model (sigmoidal dose—response model) (FIT=(A+{(B−A)/1+[(C/x)D]})) where C is the inflection point (EC50), D is the […], and A and B are the low and high limits of the fit, respectively) was used. All substrate degradation curves were processed and evaluated using ActivityBase (IDBS), a data analysis software package. Ymin is minimum percent protein remaining.

ePL-tagged Ikaros = target: T3, ePL-tagged Ikaros (Homo sapiens, UniProt Q13422+Q96SW2); experiment: as above; format: cell-based
T3 construct: expressed in transfected cells
Method: as §1, §3

[2] = system: IKZF1 ZNF2_3 Q1F tagged CD19 CAR; experiment: CRBN and ubiquitin-proteasome pathway dependence of Q1F-tagged CAR degradation in Jurkat cells; format: cell-based, human; set-up: tagged CAR remaining / levels of tagged CAR: dose or concentration left out as unconfirmed
Method: (§4) The dependence of Q1F-degron-tagged CAR degradation on CRBN and ubiquitin proteolytic pathway were assessed. CD19-targeting CAR was tagged with either IKZF1 ZNF2_3 Q1F (SEQ ID NO: 19) or Q1F/G6N (SEQ ID NO: 59). Lentiviral vectors containing these tagged CARs were then transduced into wildtype (WT) or cereblon (CRBN) knockout (KO) Jurkat cells.
(§5) Next, dependence of CAR degradation on the ubiquitin-proteosome pathway was tested by treating WT Jurkats transduced with tagged CAR for 2 hours with DMSO, 20 nM or 200 nM Compound C alone, or alongside either 2 μM of the NEDD8 E1 enzyme inhibitor MLN4924 or 2 μM of proteasome blocker Bortezomib (FIG. 11C).

[3] = target: T4, IKZF1 ZNF2_3 Q1F tagged CD19 CAR (Homo sapiens, UniProt Q13422, Q146F); experiment: as above; format: cell-based; set-up: tagged CAR remaining / levels of tagged CAR: dose or concentration left out as unconfirmed; settings: Jurkat CRBN KO cells, 1 hour
T4 construct: expressed in transfected cells; host or cells: Jurkat wild type, Jurkat CRBN knockout, Jurkat reporter line; lentiviral transduction
Method: as §4, §5

[4] = system: IKZF1 ZNF2_3 Q1F tagged anti-ROR1 CAR; experiment: CAR surface levels in primary T cells, flow cytometry; format: cell-based, human; settings: dose titration
Method: as §2

[5] = system: CD19 CARs tagged with IKZF1 ZNF2_ZNF3 Q1F; experiment: Small-molecule screen: Q1F degron-tagged CD19 CAR levels in Jurkat cells, flow cytometry; format: cell-based, human; settings: versus Helios, Aiolos, Ikaros, GSPT1, CK1a
ePL-tagged CK1a = target: T5, ePL-tagged CK1a (Homo sapiens, UniProt P48729+Q96SW2); experiment: ePL-tagged substrate degradation in MDS-L cells; format: cell-based
T5 construct: expressed in transfected cells
Method: as §1, §3

T2 sequence (P15170 whole entry): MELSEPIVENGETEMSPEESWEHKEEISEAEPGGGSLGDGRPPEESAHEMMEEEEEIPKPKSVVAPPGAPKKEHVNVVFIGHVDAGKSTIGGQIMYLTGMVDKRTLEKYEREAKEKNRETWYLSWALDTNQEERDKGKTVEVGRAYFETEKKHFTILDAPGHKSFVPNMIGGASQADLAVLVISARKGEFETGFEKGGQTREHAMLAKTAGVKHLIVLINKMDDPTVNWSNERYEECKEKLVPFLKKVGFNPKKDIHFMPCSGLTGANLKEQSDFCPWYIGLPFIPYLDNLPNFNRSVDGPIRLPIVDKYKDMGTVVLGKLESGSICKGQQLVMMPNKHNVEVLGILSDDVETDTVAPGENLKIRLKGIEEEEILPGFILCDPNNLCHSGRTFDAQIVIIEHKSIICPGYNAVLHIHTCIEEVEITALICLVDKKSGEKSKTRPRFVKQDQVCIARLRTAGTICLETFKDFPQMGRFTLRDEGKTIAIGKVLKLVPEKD
T2 sequence (Q96SW2 whole entry): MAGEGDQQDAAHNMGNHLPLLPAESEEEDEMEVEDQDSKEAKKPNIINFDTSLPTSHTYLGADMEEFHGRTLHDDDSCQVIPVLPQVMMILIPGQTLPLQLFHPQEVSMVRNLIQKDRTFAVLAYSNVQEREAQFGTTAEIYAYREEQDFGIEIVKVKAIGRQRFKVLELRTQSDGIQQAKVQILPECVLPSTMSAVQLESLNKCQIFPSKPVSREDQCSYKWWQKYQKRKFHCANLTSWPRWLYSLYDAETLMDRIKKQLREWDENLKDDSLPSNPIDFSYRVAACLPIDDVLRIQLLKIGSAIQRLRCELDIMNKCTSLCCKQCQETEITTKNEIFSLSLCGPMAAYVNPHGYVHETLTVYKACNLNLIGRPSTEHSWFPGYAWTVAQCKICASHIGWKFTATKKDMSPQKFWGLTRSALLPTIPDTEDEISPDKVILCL
T2 sequence (Q16531 whole entry partner): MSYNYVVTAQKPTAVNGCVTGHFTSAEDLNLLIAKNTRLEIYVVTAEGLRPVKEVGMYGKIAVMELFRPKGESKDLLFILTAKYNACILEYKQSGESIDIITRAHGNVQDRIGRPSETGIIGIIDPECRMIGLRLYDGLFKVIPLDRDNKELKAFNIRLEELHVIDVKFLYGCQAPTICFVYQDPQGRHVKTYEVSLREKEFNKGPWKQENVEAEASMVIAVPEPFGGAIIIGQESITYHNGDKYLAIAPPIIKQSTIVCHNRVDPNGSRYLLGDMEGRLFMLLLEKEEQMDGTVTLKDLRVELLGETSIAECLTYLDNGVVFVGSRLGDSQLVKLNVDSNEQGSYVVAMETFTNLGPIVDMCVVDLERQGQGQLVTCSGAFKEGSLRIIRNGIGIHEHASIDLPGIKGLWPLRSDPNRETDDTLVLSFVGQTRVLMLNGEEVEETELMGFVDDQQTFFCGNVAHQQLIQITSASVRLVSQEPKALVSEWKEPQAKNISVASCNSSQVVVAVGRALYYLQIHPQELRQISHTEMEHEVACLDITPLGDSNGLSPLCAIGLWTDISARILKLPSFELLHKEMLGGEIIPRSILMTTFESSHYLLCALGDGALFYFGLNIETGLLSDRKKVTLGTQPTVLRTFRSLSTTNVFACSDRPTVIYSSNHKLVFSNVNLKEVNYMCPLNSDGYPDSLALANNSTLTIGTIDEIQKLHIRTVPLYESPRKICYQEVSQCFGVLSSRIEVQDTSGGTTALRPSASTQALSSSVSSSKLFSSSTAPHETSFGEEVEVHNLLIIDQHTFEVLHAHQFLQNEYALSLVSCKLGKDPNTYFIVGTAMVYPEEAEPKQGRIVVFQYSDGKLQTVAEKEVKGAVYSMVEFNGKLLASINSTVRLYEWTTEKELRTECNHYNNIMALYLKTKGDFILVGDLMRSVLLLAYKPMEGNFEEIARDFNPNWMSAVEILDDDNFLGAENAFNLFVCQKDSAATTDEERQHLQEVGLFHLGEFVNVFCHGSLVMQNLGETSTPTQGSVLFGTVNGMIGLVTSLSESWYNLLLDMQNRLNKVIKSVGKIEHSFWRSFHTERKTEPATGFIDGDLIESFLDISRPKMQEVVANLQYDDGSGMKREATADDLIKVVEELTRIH
T5 sequence (P48729 whole entry): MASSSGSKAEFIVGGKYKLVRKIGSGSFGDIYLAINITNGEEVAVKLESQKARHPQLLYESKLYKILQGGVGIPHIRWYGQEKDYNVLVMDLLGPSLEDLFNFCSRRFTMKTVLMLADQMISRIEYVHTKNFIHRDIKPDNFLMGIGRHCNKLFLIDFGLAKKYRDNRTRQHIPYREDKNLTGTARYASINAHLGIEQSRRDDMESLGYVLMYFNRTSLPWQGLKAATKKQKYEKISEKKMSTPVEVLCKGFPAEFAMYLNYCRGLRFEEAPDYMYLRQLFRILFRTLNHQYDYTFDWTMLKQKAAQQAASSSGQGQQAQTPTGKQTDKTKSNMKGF
T5 sequence (Q96SW2 whole entry): as the sequence (Q96SW2 whole entry) above
T5 sequence (Q16531 whole entry partner): as the sequence (Q16531 whole entry partner) above
T1 sequence (Q9UKT9 whole entry): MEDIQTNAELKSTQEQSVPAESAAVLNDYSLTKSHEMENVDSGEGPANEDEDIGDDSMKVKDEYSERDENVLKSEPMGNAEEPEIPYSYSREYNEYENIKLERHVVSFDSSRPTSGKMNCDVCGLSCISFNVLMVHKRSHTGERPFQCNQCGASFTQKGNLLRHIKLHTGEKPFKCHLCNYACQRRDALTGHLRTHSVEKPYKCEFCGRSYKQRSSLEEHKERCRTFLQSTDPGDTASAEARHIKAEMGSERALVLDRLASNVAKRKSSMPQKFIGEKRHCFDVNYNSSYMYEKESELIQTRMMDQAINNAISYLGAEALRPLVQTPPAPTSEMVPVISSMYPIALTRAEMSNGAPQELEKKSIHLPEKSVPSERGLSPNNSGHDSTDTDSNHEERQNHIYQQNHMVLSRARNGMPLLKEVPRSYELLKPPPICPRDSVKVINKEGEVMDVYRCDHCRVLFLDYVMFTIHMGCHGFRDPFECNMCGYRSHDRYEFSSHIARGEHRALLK
T1 sequence (Q96SW2 whole entry): as the sequence (Q96SW2 whole entry) above
T1 sequence (Q16531 whole entry partner): as the sequence (Q16531 whole entry partner) above
T3 sequence (Q13422 whole entry): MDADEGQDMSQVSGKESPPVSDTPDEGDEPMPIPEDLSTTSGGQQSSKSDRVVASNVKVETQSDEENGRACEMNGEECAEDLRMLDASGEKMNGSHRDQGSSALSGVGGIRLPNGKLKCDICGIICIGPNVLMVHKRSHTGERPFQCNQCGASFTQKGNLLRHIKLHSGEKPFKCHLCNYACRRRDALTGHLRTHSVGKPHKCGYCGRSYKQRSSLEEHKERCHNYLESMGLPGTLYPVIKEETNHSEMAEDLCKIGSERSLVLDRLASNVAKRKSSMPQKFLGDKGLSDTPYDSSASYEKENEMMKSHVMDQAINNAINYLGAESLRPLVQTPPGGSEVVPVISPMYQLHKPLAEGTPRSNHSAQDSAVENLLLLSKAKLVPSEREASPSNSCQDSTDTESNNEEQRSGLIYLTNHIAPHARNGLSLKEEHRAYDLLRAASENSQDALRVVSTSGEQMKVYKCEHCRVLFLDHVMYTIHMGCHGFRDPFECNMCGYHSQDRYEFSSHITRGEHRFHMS
T3 sequence (Q96SW2 whole entry): as the sequence (Q96SW2 whole entry) above
T3 sequence (Q16531 whole entry partner): as the sequence (Q16531 whole entry partner) above
T4 sequence (Q13422 141-196 Q146F): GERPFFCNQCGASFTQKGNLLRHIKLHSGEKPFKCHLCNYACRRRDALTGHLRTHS

Ymin (%) (ePL-tagged Aiolos): 83% | DC50 (ePL-tagged Aiolos; Aiolos, DF15 cells, 4 hours, read-out: EC50 (the source's name)): > 10 µM | Ymin (%) (ePL-tagged GSPT1): 89% | DC50 (ePL-tagged GSPT1; GSPT1, DF15 cells, 20 hours, read-out: EC50 (the source's name)): > 10 µM | Ymin (%) (ePL-tagged Ikaros): 92% | DC50 (ePL-tagged Ikaros; Ikaros, DF15 cells, 4 hours, read-out: EC50 (the source's name)): > 10 µM | levels of tagged CAR [3]: remained identical to untagged CAR | Ymin (%) (ePL-tagged CK1a): 98% | DC50 (ePL-tagged CK1a; CK1a, MDS-L cells, 4 hours, read-out: EC50 (the source's name)): > 10 µM
SMILES: Cc1ncccc1N1CCN(Cc2ccc3c(c2)CN(C2CCC(=O)NC2=O)C3=O)CC1 (centres unmarked) [Compound C, 3-(5-((4-(2-methylpyridin-3-yl)piperazin-1-yl)methyl)-1-oxoisoindolin-2-yl)piperidine-2,6-dione]
effector function of primary CAR T cells (killing and cytokine production) [1]: could be titrated | tagged CAR remaining ([2]; WT Jurkat cells, 1 hour): below 20% | tagged CAR degradation in the presence of inhibitor ([2]; WT Jurkats, 2 hours, 20 nM or 200 nM, alongside 2 μM MLN4924 or 2 μM Bortezomib): failure to degrade tagged CAR | surface levels of ZNF2_3 Q1F-tagged CAR [4]: could be titrated | selectivity for the Q1F degron (in words) [5]: highly selective for the Q1F degron
